This passage reports remaining binding results from patent US12479847B2 (DANA-FARBER CANCER INSTITUTE, INC., priority 2019, dated 2025).

SMILES strings stand for the structures.

Common to all, as to assay: KINOMEscan (ScanMAX) kinase profiling
Holding throughout (format): binding

The target of assay [1] is T1, panel of 468 kinases (Homo sapiens, UniProt O94806).
T1 construct: purchased KINOMEscan (ScanMAX) service
T1 sequence (O94806 1-890): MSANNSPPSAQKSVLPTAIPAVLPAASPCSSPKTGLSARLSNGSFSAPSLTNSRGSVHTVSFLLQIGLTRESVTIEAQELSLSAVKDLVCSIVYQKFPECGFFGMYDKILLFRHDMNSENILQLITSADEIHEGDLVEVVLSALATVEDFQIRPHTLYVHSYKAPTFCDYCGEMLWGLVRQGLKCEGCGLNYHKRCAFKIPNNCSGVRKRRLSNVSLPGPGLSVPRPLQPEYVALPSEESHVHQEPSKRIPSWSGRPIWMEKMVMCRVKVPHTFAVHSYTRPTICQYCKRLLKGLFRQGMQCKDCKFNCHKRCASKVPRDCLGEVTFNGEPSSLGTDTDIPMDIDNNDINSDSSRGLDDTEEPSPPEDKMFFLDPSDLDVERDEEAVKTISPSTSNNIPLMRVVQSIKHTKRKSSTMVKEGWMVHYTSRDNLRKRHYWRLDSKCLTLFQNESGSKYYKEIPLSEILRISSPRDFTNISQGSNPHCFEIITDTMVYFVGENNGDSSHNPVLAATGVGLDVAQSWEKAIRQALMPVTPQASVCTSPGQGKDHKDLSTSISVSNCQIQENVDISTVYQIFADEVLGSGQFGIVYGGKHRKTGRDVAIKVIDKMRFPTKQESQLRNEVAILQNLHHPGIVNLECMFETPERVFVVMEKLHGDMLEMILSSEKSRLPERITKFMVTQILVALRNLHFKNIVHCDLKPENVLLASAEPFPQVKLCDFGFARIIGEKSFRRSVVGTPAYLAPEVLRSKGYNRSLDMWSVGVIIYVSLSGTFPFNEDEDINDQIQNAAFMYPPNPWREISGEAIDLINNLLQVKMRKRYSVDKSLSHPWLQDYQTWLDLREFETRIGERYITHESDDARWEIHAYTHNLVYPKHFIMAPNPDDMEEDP
The following applies: PRKD3; 1 μM; read-out: % control.

The target of assay [2] is T2, panel of 468 kinases (Homo sapiens, UniProt P29317).
T2 construct: purchased KINOMEscan (ScanMAX) service
To be noted: EPHA2; 1 μM; read-out: % control.

In assay [3] the target is T3, panel of 468 kinases (Homo sapiens, UniProt P30530).
T3 construct: purchased KINOMEscan (ScanMAX) service
T3 sequence (P30530 26-894): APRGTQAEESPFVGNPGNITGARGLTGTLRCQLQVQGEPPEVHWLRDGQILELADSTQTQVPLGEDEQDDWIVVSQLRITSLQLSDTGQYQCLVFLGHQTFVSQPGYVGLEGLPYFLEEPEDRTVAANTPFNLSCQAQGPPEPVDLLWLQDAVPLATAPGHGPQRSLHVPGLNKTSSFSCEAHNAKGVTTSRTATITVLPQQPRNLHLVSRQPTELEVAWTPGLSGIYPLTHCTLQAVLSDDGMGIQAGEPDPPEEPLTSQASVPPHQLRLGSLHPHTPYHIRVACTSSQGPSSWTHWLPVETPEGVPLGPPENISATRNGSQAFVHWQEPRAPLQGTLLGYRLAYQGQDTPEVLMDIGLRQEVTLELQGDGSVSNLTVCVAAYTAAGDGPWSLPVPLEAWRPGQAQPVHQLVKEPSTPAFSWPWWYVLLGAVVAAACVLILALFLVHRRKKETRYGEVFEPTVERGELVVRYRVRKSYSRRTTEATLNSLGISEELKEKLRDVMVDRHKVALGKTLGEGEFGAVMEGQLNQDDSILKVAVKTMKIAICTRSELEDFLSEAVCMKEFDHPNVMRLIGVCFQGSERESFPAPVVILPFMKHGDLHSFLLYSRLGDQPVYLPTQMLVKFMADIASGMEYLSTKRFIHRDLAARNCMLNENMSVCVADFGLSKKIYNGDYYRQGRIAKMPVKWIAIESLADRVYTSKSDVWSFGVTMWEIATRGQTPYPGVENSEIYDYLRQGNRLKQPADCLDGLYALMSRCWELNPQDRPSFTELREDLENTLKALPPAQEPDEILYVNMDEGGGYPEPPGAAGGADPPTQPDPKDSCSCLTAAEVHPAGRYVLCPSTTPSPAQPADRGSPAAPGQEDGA
To be noted: AXL; 1 μM; read-out: % control.

For assay [4], the target named is T4, panel of 468 kinases (Homo sapiens, UniProt P45985).
T4 construct: purchased KINOMEscan (ScanMAX) service
T4 sequence (P45985 1-399): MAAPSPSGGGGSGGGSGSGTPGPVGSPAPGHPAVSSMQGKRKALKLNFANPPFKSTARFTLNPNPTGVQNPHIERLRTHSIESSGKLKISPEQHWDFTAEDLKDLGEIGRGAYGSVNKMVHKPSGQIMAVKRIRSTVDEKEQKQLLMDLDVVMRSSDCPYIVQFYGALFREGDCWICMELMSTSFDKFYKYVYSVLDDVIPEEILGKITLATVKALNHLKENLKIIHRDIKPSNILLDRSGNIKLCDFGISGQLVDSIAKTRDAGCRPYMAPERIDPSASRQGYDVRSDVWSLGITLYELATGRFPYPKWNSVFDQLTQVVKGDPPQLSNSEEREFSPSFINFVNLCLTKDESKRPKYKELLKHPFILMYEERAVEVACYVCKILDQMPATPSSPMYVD
To be noted: MEK4; 1 μM; read-out: % control.

T2 sequence (P29317 24-976): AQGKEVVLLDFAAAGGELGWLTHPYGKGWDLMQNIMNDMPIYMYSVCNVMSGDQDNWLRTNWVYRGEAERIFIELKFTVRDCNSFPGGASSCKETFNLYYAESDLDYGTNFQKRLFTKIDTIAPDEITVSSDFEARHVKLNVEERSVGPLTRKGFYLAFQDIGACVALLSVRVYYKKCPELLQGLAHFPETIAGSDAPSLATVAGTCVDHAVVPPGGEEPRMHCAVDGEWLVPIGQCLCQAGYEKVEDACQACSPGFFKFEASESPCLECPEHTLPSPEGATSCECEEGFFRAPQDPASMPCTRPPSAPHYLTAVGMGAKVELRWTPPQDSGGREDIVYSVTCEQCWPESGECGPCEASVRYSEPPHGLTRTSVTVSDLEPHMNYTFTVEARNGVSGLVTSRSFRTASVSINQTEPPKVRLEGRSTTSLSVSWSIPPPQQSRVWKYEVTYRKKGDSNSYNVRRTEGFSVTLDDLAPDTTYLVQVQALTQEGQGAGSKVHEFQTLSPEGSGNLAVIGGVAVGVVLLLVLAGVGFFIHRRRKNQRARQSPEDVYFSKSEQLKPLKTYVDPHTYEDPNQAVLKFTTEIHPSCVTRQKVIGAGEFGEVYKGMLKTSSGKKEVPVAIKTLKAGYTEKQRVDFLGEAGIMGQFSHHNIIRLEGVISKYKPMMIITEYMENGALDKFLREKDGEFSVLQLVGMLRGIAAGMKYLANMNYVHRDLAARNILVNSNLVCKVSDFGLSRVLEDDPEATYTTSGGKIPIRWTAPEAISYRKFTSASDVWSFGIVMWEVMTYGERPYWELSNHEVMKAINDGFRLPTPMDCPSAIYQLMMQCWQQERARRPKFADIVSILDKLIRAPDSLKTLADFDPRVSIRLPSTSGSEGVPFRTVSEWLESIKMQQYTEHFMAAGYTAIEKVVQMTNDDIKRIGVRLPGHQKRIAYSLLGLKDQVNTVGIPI

Turning to `CNc1nc(Nc2ccc(S(=O)(=O)N3CCC(N4CCOCC4)CC3)cc2OC)nc2[nH]cc(Cl)c12` [Compound 12, 5-chloro-N2-(2-methoxy-4-((4-morpholinopiperidin-1-yl)sulfonyl)phenyl)-N4-methyl-7H-pyrrolo[2,3-d]pyrimidine-2,4-diamine], the remaining binding at 1 µM in assay [1] worked out at 28%; in assay [2], 100%; in assay [3] it was 100%; in assay [4] it was 26%.

As for `CNc1nc(Nc2ccc(C(=O)N3CCC(N4CCOCC4)CC3)c3c2OCO3)nc2[nH]cc(Cl)c12` [Compound 75, (7-((5-chloro-4-(methylamino)-7H-pyrrolo[2,3-d]pyrimidin-2-yl)amino)benzo[d][1,3]dioxol-4-yl)(4-morpholinopiperidin-1-yl)methanone], the remaining binding at 1 µM in assay [1] stood at 4%; in assay [2], 96%; in assay [3], 63%; in assay [4], 0.05%.

For the compound `CNc1nc(Nc2ccc(P3(=O)CCN(C4CCOCC4)CC3)cc2OC)nc2[nH]cc(Cl)c12` [Compound 77, 4-(4-((5-chloro-4-(methylamino)-7H-pyrrolo[2,3-d]pyrimidin-2-yl)amino)-3-methoxyphenyl)-1-(tetrahydro-2H-pyran-4-yl)-1,4-azaphosphinane 4-oxide], the remaining binding at 1 µM in assay [1] was 13%; in assay [2], 100%; in assay [3] it was 93%; in assay [4], 4.7%.
